The source of these data is patent publication US11827543B2, “Method for continuous supply of superoxide-containing peracetate oxidant solution” (Clean Chemistry, Inc., priority 2014, dated 2023).

Each structure is given as a SMILES string.

Data set [1] in a line: Gel breaking of guar gum mixture. As to conditions: for Viscosity at 2 Hour Contact Time: 10 g/L guar gum, 35-40 °C. On the procedure: Example 15: Gel Breaking ability for well squeeze to remove “polymer damage”. The use of the sodium peracetate oxidant formulation was tested for the depolymerization and break down of guar gum. […] The guar mixture was made by rapidly mixing 10 g/L food grade guar gum powder into a 10 g/L sodium chloride solution in distilled water. The blended mixture was heated to about 35-40° C. in a heated water bath for at least one hour to fully hydrate the guar. The mixture appeared translucent with fine, milky white suspended solids. […] The first was a control sample to which no oxidant was added. The remaining samples had increasing amounts of sodium peracetate oxidant added to them. The oxidant was prepared as described in Example 4 and the pH was adjusted to about 9.1 with sodium bisulfate before use. The oxidant was rapidly mixed with the guar mixture resulting in a pale yellow color. The mixtures were placed in a water bath at about 35-40° C. and the yellow color gradually faded away over the next hour. After two hours the samples were cooled to room temperature.

The nature of data set [2]: Jar test water parameters (hardness, calcium, magnesium, chloride, sodium, aluminum, iron, TSS, turbidity). The following applies: produced water, Example 17; for Magnesium (mg/L as CaCO3): untreated 170; for Calcium (mg/L as CaCO3): untreated 1080; for Hardness (mg/L as CaCO3): untreated 1250.
Protocol: The water sample was thoroughly mixed and 500 mL dispensed into 1 L beakers to conduct tests using a Phipps and Bird programmable jar tester. The jar tester was programmed for a rapid mix of high shear force at 295 rpm impeller speed for 1.25 minutes, followed by a low shear impeller speed of 25 rpm for 10 minutes to promote coalescence and floc formation. All tests were conducted at room temperature, 20-25° C. The 500 mL water samples were dosed with varying amounts of sodium peracetate oxidant solution during the rapid mix from an oxidant solution that was 2.1% wt/vol sodium peracetate (1.6% wt/vol measured as PAA). Also during the rapid mix the jar samples were dosed with 0.5 to 1 mg/L of an anionic polymer dispersion as a coalescence and floc aid.
Example 17: Oxidative clarification of suspended solids and metals. A produced water sample originating from the Denver-Julesburg basin formation in CO, USA contained suspended and dissolved solids, bacteria and up to about 2% salinity. The water sample was thoroughly mixed and 500 mL dispensed into 1 L beakers to conduct tests using a Phipps and Bird programmable jar tester. The jar tester was programmed for a rapid mix of high shear force at 295 rpm impeller speed for 1.25 minutes followed by a low shear impeller speed of 25 rpm for 20 minutes to promote floc formation and allow for pH and ORP monitoring prior to settling of solids. All tests were conducted at room temperature, 18-21° C. The 500 mL water samples were dosed with varying amounts of sodium peracetate oxidant solution during the rapid mix from an oxidant solution that was 2.2% wt/vol sodium peracetate (1.7% wt/vol measured as PAA). In some cases, during the rapid mix the jar samples were dosed with up to 5 mg/L of an anionic polymer dispersion as a floc aid.
Water parameters were measured by a variety of methods.
Data set [3] has as its system sulfate reducing bacteria (SRB). The data set can be described thus: Sulfate reducing bacteria serial dilution culture (Intertek SRB media). Format: cell-based. The following applies: produced water, Example 17, 30 min contact, no grow back.

Turning to `CC(=O)O[O-].[Na+]` [sodium peracetate oxidant, sodium peracetate], the “Viscosity at 2 Hour Contact Time” value is given as “same as initial” in data set [1] (oxidant conc. 65 mg/L), “slightly reduced” in data set [1] (oxidant conc. 220 mg/L) and “very reduced” in data set [1] (oxidant conc. 440 mg/L). In addition, the “preservation of guar mixture on standing at room temperature” value in data set [1] (about 65 mg/L oxidant, control lost viscosity overnight, biofilm after a week) was “retained its original viscosity and milky color for at least a week”. Moreover, the “Magnesium (mg/L as CaCO3)” value in data set [2] (29 mg/L plus 5 mg/L floc aid) and in data set [2] (52 mg/L) was 200 mg/L as CaCO3 throughout. In addition, the “Calcium (mg/L as CaCO3)” value in data set [2] (29 mg/L plus 5 mg/L floc aid) was determined as 940 mg/L as CaCO3; in data set [2] (52 mg/L), 1020 mg/L as CaCO3. The “Hardness (mg/L as CaCO3)” value in data set [2] (29 mg/L plus 5 mg/L floc aid) turned out to be 1140 mg/L as CaCO3; in data set [2] (52 mg/L), 1220 mg/L as CaCO3. Besides, the “SRB (cells/mL and log reduction)” value is reported as 5 log (no grow in data set [3] (29 mg/L plus 5 mg/L floc aid); 5 log (no grow in data set [3] (29 mg/L, untreated >>10,000 cells/mL); 5 log (no grow in data set [3] (52 mg/L).
